This note sets out measurements from patent publication US9603877B2, “Isolated nucleotide molecule and method of sensing and killing of pathogenic microorganism” (priority 2011, dated 2017).

Assay [1] concerns E. coli carrying pTetR-LasR-pLuxR-E7. Description: Characterization of lysis device with 3OC12HSL (OD600 of E. coli carrying pTetR-LasR-pLuxR-E7). The assay is classed as cell-based. How it is done: Characterization of Lysis Device with 3OC12HSL
Overnight cultures of pTetR-LasR-pLuxR-E7 (Top10) were diluted in supplemented M9 and harvested at an OD600 of 0.5. […] The plate was incubated at 37° C. with rapid shaking in a microplate reader (Biotek) and assayed for cell turbidity. Time-series absorbance at OD600 was obtained at intervals of 10 mins for a total run time of 6 hrs. The result was zeroed with supplemented M9 to remove background absorbance.
The system according to various embodiments was designed to release pyocin S5 through lysis upon detection of P. aeruginosa. To determine the lysis activity of the system, the behavior of the E7 lysis protein under the transcriptional control of the sensing device before integrating both the pyocin S5 and E7 genes into the system was characterized. […] To further confirm that the lysis activity may be sustained in the final system including pyocin S5, the morphology of E. coli containing the final system (i.e., pTetR-LasR-pLuxR-S5-pLuxR-E7; FIG. 1B) was monitored using FESEM.

For assay [2], the target named is T1, Pseudomonas aeruginosa LasR, SEQ ID NO: 1 (UniProt: PSPA7_3898), in sensing device pTetR-LasR-pLuxR-GFP (Pseudomonas aeruginosa, UniProt P25084).
T1 construct: expressed in transfected cells; host or cells: E. coli TOP10 (plasmid pTetR-LasR-pLuxR-GFP in pSB1A2)
Description: Characterization/transfer function of the LasR sensing device (pTetR-LasR-pLuxR-GFP) with 3OC12HSL, GFP reporter in E. coli TOP10. The assay is classed as cell-based, P. aeruginosa. The procedure: Single colonies of pTetR-LasR-pLuxR-GFP (Top10) were each inoculated into 5 ml of pre-warmed supplemented M9 ampicillin for overnight culture in a shaking incubator at 37° C. After overnight growth, the cultures were diluted to OD600 of 0.002 and allowed to incubate further to OD600 of 0.5 or 5.0E7 cfu/ml under the same condition. […] The plate was incubated at 37° C. with rapid shaking in a microplate reader (Biotek) and assayed for green fluorescence. Time-series fluorescence and OD600 data were obtained at intervals of 10 mins for a total run time of 3 hrs. The measurement was zeroed with supplemented M9 to remove background fluorescence and OD600. A relative GFP production rate was derived as a ratio of background subtracted green fluorescence to OD600 value.
The four parameters (A, B, C, n) were estimated to obtain the best fit curve by performing a non-linear curve fitting using the experimental results. This curve fitting was performed using MATLAB Curve Fitting Toolbox (The Mathworks, Natwick, Mass., USA).

T1 sequence (P25084 whole entry M144I): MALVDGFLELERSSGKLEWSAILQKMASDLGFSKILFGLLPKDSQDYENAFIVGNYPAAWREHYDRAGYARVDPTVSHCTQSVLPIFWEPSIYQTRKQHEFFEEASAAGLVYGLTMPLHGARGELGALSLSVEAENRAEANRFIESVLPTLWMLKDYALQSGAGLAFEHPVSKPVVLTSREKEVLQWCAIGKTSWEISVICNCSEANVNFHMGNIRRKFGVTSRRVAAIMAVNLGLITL

With `CCCCCCCCCC(=O)CC(=O)N[C@H]1CCOC1=O` [3OC12HSL, N-3-oxododecanoyl homoserine lactone], the “growth/lysis of E. coli (OD600) at 1.0E-6 and 1.0E-4M 3OC12HSL” value in assay [1] (1.0E-6 and 1.0E-4M 3OC12HSL) is on record as “significant reduction in optical density”. For the same compound, the “growth/lysis of E. coli (OD600) at 1.0E-8M 3OC12HSL” value in assay [1] (1.0E-8M 3OC12HSL) was “no noticeable transition into a lysis state”. In assay [1] (Escherichia coli, 2 h, read-out: concentration causing observable cell lysis), the minimal effective concentration is at least 1 µM. The “input concentration at which the sensing device saturated” value in assay [2] (Hill model, >3.3E-7M but <1.0E-6M) was over 330 nM. Further, the “maximum output (GFP production rate) at saturation” value in assay [2] (Hill model, input concentration >3.3E-7M but <1.0E-6M) amounted to 1.96 RFU per OD per minute. Further, the “concentration at which GFP production rate peaked” value in assay [2] (sharp increase beyond 1.0E-7M, sharp decline after peak) turned out to be 1000 nM.
